{
  "source": "patent US8716226B2",
  "about": "“3,5 phenyl-substituted beta amino acid derivatives as integrin antagonists” (Saint Louis University, priority 2012, dated 2014)",
  "key": {"αvβ5": {"target": "T1, αvβ5 (Homo sapiens, UniProt P06756+P18084)", "T1 construct": "expressed in transfected cells; host or cells: HEK 293 (293/b5)", "T1 sequence (P06756 31-889 limits assumed)": "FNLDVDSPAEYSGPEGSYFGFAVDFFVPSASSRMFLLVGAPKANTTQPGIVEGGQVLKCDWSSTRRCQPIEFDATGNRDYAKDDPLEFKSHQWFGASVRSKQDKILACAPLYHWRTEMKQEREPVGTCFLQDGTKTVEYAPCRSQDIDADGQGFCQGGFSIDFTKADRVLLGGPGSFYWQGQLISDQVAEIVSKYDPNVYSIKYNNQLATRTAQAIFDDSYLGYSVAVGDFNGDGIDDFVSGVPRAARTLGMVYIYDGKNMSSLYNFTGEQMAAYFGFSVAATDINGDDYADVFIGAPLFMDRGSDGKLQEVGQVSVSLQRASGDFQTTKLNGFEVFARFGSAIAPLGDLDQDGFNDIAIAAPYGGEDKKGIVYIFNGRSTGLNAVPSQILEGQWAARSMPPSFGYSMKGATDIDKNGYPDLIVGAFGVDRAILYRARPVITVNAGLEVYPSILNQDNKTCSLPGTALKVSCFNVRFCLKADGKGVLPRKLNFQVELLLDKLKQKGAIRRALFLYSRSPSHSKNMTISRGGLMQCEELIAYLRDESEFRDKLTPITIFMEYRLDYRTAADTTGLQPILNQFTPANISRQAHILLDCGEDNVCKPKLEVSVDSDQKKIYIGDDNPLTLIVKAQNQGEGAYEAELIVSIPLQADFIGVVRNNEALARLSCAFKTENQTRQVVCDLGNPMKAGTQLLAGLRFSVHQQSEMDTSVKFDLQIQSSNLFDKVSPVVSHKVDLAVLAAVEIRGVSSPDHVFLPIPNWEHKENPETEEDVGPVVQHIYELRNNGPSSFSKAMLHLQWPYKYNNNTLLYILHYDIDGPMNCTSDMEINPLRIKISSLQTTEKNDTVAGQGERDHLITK", "T1 sequence (P06756 891-1048 partner limits assumed)": "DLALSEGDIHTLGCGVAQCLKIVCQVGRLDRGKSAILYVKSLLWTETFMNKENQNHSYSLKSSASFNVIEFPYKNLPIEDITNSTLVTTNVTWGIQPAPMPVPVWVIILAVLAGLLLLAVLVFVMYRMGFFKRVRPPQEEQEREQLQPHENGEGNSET", "T1 sequence (P18084 24-799)": "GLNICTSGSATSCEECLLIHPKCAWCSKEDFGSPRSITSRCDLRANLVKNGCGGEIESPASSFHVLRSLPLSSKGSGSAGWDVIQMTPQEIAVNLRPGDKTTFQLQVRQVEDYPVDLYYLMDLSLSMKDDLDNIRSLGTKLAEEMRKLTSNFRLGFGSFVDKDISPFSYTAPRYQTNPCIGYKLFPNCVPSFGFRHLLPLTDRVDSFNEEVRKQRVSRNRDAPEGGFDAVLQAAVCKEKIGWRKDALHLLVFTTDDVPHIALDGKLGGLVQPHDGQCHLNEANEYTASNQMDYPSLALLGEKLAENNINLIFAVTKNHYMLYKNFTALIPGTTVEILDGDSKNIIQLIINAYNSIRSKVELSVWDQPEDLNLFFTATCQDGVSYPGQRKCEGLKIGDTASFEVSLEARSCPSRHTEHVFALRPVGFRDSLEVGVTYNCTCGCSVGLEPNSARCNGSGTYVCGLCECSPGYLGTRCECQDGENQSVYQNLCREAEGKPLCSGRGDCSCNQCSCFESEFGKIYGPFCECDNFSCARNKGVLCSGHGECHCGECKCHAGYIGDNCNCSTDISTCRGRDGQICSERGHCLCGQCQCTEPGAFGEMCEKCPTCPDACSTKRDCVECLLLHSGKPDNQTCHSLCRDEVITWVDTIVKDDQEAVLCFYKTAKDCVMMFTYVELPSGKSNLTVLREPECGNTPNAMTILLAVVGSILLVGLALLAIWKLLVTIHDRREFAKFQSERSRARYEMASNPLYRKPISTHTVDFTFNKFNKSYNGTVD", "test": "293/b5 cell adhesion assay for αvβ5 function", "assay_type": "cell-based", "conditions": "293/b5 cells, adhesion to human vitronectin", "description": "293/b5 Cell Adhesion Assay for αvβ5 Function.\nPurified human vitronectin (Calbiochem/EMD Biosciences) diluted to 0.25 μg/ml in TS buffer (25 mM Tris 7.4, 150 mM NaCl) was added to wells (100 μl/well) of a 96-well microtiter plate (Immulon 2HB 96-well; VWR Scientific) and incubated overnight at 4° C. The solution in each well was then replaced with 200 μl of blocking buffer (TS with 1% bovine serum albumin), and the plate incubated for 1 hr at 37° C. Compounds were diluted in test tubes to 2× the peak testing concentration in cell adhesion buffer consisting of Hanks Buffered Salts Solution (HBSS, cation-free, Sigma), 0.1% bovine serum albumin, 25 mM HEPES, and 200 μM MnCl2. […] The cells were washed with the cell adhesion buffer, counted using a hemocytometer, centrifuged and resuspended in cell adhesion buffer at 3×10^6 cells/ml. […] Remaining attached cells were detected by addition of 100 μl/well p-nitrophenylphosphate (Sigma) solution (15 mg tablet dissolved in 25 ml 50 mM NaAcetate, pH5; 0.5% Triton-X-100), incubation for 30 min at 37° C., and then addition of 50 μl/well 1N NaOH to stop the enzyme reaction. Plates were read by colorimetric detection at 405 nm wavelength using a Tecan Safire II plate reader. Concentration-response curves were constructed by non-linear regression (best fit) analysis, and IC50 values were calculated for each compound. […]"}, "[1]": {"system": "TGFβ activation by recombinant human integrin αvβ6", "test": "Integrin-mediated TGFβ activation assay (MLEC-PAI/L luciferase reporter co-cultured with SW480-β6 cells)", "assay_type": "cell-based", "conditions": "MLEC-PAI/L reporter cells co-cultured overnight with SW480-β6 cells", "description": "Integrin-Mediated TGFβ Activation Assay.\nMink lung epithelial cells stably transfected with a luciferase reporter driven by a portion of the TGFβ-responsive Plasminogen Activator Inhibitor promoter (MLEC-PAI/L) were seeded at a density of 25,000/well in a white-walled, clear-bottom 96-well culture plate (Costar 3610) in 100 μL of assay medium (phenol red-free DMEM+10% fetal bovine serum). The cells were incubated for one hour in ambient air at room temperature, then at 37° C. for three hours in 5% CO2 to allow cell attachment. The medium was aspirated from the wells and 50 μL of compound diluted to 2× in assay medium was applied to each well, followed by 50 μL of assay medium containing 25,000 SW480-β6 cells, a cell line which stably overexpresses recombinant human integrin αvβ6. […] Following overnight co-culture incubation under standard conditions, the assay medium was aspirated from the wells, and a foil seal was applied to the bottom of the plate to prevent cross-detection of luminescence between the sample wells. […] The assay plate was then read immediately on a luminometer. Data was analyzed by first subtracting the mean substrate blank value from all samples, then dividing by the mean value of the MLEC-PAI/L baseline group to yield a “relative luciferase activity” value (RLA). […]"}},
  "data": [
    {"smiles": "CC(C)(C)c1cc(Br)cc([C@H](CC(=O)O)NC(=O)CNC(=O)c2cc(O)cc(NC3=NCC(O)CN3)c2)c1", "note": "(stereo partly drawn) [Example 1, (3S)—N-[3-hydroxy-5-[(1,4,5,6-tetrahydro-5-hydroxy-2-pyrimidinyl)amino]benzoyl]glycyl-3-(3-bromo-5-tert-butylphenyl)-β-alanine]", "values": [
      {"measurement": "IC50", "setting": "αvβ5", "result": 51.7, "unit": "nM"},
      {"measurement": "IC50", "setting": "[1]", "result": 564, "unit": "nM"}
    ]}
  ]
}
